Tests used:
[1] = Liver microsome stability test, mouse; type: in vitro ADME; conditions: mouse liver microsomes; CD-1 mouse (M) liver microsome; read-out: Liver microsome stability (T1/2, min)
Method: (§1) A test compound was incubated with CD-1 mouse liver microsome, SD rat liver microsome, and human liver microsome, respectively, to evaluate the stability of the test compound.
(§2) Preparation of a solution sample of the test compound: 10 mM solution (5 μL) of a compound prepared in the Example in DMSO was added to a mixed solvent (450 μL) of DMSO (45 μL), methanol and water (a volume ratio of methanol to water was 1:1) to prepare a 100 μM solution of the test compound; and 50 μL of the 100 μM solution of the test compound was added to 450 μL of 100 mM potassium phosphate buffer to obtain a 10 μM solution of the test compound.
(§3) The 10 μM solution of the test compound was pre-incubated with the microsome from the above three species for 10 minutes, respectively, and then a working solution of a reduced nicotinamide adenine dinucleotide phosphate (NADPH) regeneration system was added to the incubation plate at each time point to initiate the reaction, and finally a stop solution (100% ACN) was added to the reaction plate to terminate the reaction at 0, 5, 10, 20, 30 and 60-minute. The test compound was determined by LC-MS/MS method.

[2] = Liver microsome stability test, human; type: in vitro ADME; conditions: human liver microsomes; human (H) liver microsome; read-out: Liver microsome stability (T1/2, min)
Method: as §1, §2, §3

[3] = Liver microsome stability test, rat; type: in vitro ADME; conditions: rat liver microsomes; SD rat (R) liver microsome; read-out: Liver microsome stability (T1/2, min)
Method: as §1, §2, §3

MDR1 = experiment: Cell membrane permeability test on MDR1-MDCK II cells; type: in vitro ADME; conditions: dog; for Papp A→B at 150 min, 2 μM / Papp B→A at 150 min, 2 μM: pH=7.4; for efflux ratio at 150 min, 2 μM: pH 7.4, Papp B to A/Papp A to B
Method: Cell membrane permeability of a test compound was evaluated on MDR1-MDCK II cells.
A test compound (10 mM solution of the compound in DMSO) was diluted with a transfer buffer (HBSS with 10 mM Hepes, pH=7.4) to prepare a sample having a final concentration of 2 μM, followed by bidirectional (A-B and B-A) administration. After administration, the cell plate was incubated in an incubator with 5% CO2 and a saturated humidity at 37° C. for 150 minutes. After the 150-minute incubation, the sample was collected, and the concentration of the test compound in the transfer sample was semi-quantitatively determined by LC/MS/MS method.

MM1.S cells = experiment: In vitro anti-proliferation test on MM1.S cells (CellTiter-Glo); type: cell-based; conditions: Homo sapiens, 48 h, 2 days incubation, cell viability
Method: This test was aimed to investigate the inhibitory effect of a compound on cell proliferation by determining the effect of the compound on cell viability in tumor cell line MM1.S in vitro.
MM1.S cells were seeded into a black 96-well cell culture plate at a density of 7,000 cells per well, and then the plate was incubated overnight in an incubator with 5% CO2 and 100% relative humidity at 37° C. A solution of a test compound in DMSO was added to the cell culture wells at a certain concentration (0.3 to 2000 nM), and then the culture plate was placed back to the incubator, and a vehicle control (containing DMSO with no compound) and a blank control were provided.
The culture plate was incubated in the incubator with 5% CO2 and 100% relative humidity at 37° C. for 2 days. The sample was treated using the Promega CellTiter-Glo Luminescent Cell Viability Assay Kit (Promega-G7571) standard method, and a luminescent signal was detected on the SpectraMax i3x of Molecular Devices plate reader. The inhibition rate of the test compound was calculated through the following equation using original data: […]
RLU represents a relative luminescence intensity.

| SMILES | half-life [1] [min] | half-life [2] [min] | half-life [3] [min] | Papp A→B at 150 min, 2 μM (MDR1) [×10⁻⁶ cm/s] | Papp B→A at 150 min, 2 μM (MDR1) [×10⁻⁶ cm/s] | efflux ratio at 150 min, 2 μM (MDR1) | IC50 (MM1.S cells) [µM] |
| --- | --- | --- | --- | --- | --- | --- | --- |
| CC(C)CC(NC(=O)[C@H](Cc1ccccc1)NC(=O)[C@@H]1CCN1c1ccc(F)cc1)B(O)O (single isomer, unassigned) [WX-193] | 2.7 | 4.8 | 4.6 | 0.1 | 13.1 | 131 | 0.0082 |
| CC(C)CC(NC(=O)CNC(=O)[C@@H]1CCN1c1ccc(F)cc1)B(O)O (single isomer, unassigned) [WX-301] | 43.5 | 74.3 | 42.1 | – | – | – | 0.0058 |
| CC(C)CC(NC(=O)[C@H](C)NC(=O)[C@@H]1CCN1c1ncc(F)cn1)B(O)O (single isomer, unassigned) [WX-313] | 52.5 | > 145 | 57.2 | 0.2 | 1.29 | 7.16 | 0.0245 |
| CC(C)CC(NC(=O)CNC(=O)[C@@H]1CCN1c1ccc(F)cn1)B(O)O (single isomer, unassigned) [WX-317] | 27.1 | 77 | 35.5 | 0.01 | 0.05 | 5 | 0.032 |
| CC(C)CC(NC(=O)CNC(=O)[C@@H]1CCN1c1ccc(F)cc1F)B(O)O (single isomer, unassigned) [WX-333] | 67.4 | 67.4 | 43.1 | 0.38 | 7.32 | 19.3 | 0.001 |
| CC(C)CC(NC(=O)[C@H](Cc1ccccc1)NC(=O)[C@@H]1CCN1c1nccc(-c2ccccc2)n1)B(O)O (some centres unmarked) [WX-174] | 0.8 | 3.5 | 1.6 | 0.44 | 18.4 | 41.8 | 0.0058 |
| CC(C)CC(NC(=O)[C@H](CC1CC1)NC(=O)[C@@H]1CCN1c1ncc(F)cn1)B(O)O (some centres unmarked) [WX-260] | 84.8 | 108 | > 145 | 0.3 | 5.1 | 17 | 0.011 |
| CC(C)CC(NC(=O)[C@H](CC1CC1)NC(=O)[C@@H]1CCN1c1ccc(C(F)(F)F)cn1)B(O)O (some centres unmarked) [WX-306] | 14 | 17.8 | 37.4 | 0.3 | 17.8 | 59.3 | 0.0082 |
| CC(C)CC(NC(=O)[C@H](CC1CC1)NC(=O)[C@@H]1CCN1c1nc(C(F)(F)F)cs1)B(O)O (some centres unmarked) [WX-308] | 20.1 | 27.4 | 26.8 | 0.2 | 15.3 | 76.5 | 0.0089 |
| CC(C)CC(NC(=O)CNC(=O)[C@@H]1CCN1c1nc(C(F)(F)F)cs1)B(O)O (some centres unmarked) [WX-327] | 37.7 | 75 | 26.5 | 0.24 | 2.24 | 9.33 | 0.0242 |
| CC(C)CC(NC(=O)CNC(=O)[C@@H]1CCN1c1ccc(C(F)(F)F)cn1)B(O)O (some centres unmarked) [WX-329] | 40.3 | 51.5 | 43.3 | 0.27 | 3.74 | 13.8 | 0.0115 |

Continued, values first:

| half-life [1] [min] | half-life [2] [min] | half-life [3] [min] | Papp A→B at 150 min, 2 μM (MDR1) [×10⁻⁶ cm/s] | Papp B→A at 150 min, 2 μM (MDR1) [×10⁻⁶ cm/s] | efflux ratio at 150 min, 2 μM (MDR1) | IC50 (MM1.S cells) [µM] | SMILES |
| --- | --- | --- | --- | --- | --- | --- | --- |
| – | – | – | – | – | – | 0.0459 | CC(C)CC(NC(=O)CNC(=O)[C@@H]1CCN1c1ccc(C(F)(F)F)cc1Cl)B(O)O (some centres unmarked) [WX-351] |
| – | – | – | – | – | – | 0.0288 | CC(C)CC(NC(=O)CNC(=O)[C@@H]1CCN1c1ccc(C(F)(F)F)cc1F)B(O)O (some centres unmarked) [WX-355] |
| – | – | – | – | – | – | 0.0906 | CC(C)CC(NC(=O)CNC(=O)[C@@H]1CCN1c1ccc(C#N)cc1F)B(O)O (some centres unmarked) [WX-365] |
| – | – | – | – | – | – | 0.183 | CC(C)CC(NC(=O)CNC(=O)[C@@H]1CCN1c1ccc(C(F)(F)F)nn1)B(O)O (some centres unmarked) [WX-367] |
| – | – | – | – | – | – | 0.0267 | CC(C)CC(NC(=O)CNC(=O)[C@@H]1CCN1c1c(F)cc(Cl)cc1F)B(O)O (some centres unmarked) [WX-373] |
| – | – | – | – | – | – | 0.024 | CC(C)CC(NC(=O)CNC(=O)[C@@H]1CCN1c1ncc(F)cc1F)B(O)O (some centres unmarked) [WX-379] |
| – | – | – | – | – | – | 0.119 | CC(C)CC(NC(=O)CNC(=O)[C@@H]1CCN1c1ccc(F)cc1Cl)B(O)O (some centres unmarked) [WX-381] |
| – | – | – | – | – | – | 0.104 | CC(C)CC(NC(=O)CNC(=O)[C@@H]1CCN1c1ccc(Cl)cc1C(F)(F)F)B(O)O (some centres unmarked) [WX-385] |
| – | – | – | – | – | – | 0.0054 | CC(C)CC(NC(=O)CNC(=O)[C@@H]1CCN1c1cc(F)c(F)cc1F)B(O)O (some centres unmarked) [WX-391] |

Source: patent US11014943B2, “Azetidine derivative” (CHIA TAI TIANQING PHARMACEUTICAL GROUP CO., LTD., priority 2017, dated 2021)
